One test deals with rat α3β2 nAChR (Rattus norvegicus, UniProt P04757+P12390). Nature of the test: cell-based.
For the next test, the target named is rat α7 nAChR (Rattus norvegicus, UniProt Q05941). Put plainly: cell-based. In kind it is cell-based.
For test [1] the following is noted: in vivo; cited from earlier work.

Broadly, the IC50 is the midpoint of a concentration-inhibition curve.

“Also recorded” adds a separate entry of the source. Where a SMILES comes first, the peptide text is derived from it. Bridges are numbered along the chain shown (N, C = ends).

Sequence of rat α7 nAChR (Q05941 23-502 limits assumed): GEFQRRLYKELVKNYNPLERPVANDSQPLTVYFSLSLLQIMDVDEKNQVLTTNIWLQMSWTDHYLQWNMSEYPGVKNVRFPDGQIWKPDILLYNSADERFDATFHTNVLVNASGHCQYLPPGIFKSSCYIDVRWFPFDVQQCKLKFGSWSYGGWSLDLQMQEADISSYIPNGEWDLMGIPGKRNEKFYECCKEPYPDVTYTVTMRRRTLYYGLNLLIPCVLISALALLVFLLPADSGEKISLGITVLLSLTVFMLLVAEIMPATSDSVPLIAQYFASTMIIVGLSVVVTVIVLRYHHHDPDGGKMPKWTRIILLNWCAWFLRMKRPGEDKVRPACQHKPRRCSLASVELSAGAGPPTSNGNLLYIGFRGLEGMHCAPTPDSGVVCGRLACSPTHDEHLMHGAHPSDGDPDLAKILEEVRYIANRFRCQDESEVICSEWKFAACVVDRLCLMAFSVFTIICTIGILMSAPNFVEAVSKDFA
Sequence of rat α3β2 nAChR (P04757 26-499 limits assumed): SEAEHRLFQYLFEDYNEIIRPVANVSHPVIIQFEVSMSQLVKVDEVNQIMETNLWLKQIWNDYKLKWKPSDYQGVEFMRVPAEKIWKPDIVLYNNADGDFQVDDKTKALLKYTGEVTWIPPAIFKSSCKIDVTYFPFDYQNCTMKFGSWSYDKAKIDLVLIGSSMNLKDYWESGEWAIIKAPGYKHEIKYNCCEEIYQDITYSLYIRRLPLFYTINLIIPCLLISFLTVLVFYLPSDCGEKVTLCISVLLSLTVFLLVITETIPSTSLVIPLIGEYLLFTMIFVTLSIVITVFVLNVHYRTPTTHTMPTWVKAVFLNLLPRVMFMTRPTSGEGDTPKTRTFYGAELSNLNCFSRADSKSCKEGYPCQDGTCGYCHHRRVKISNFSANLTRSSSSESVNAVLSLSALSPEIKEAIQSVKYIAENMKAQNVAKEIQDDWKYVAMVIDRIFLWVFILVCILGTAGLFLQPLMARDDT
Sequence of rat α3β2 nAChR (P12390 25-500 limits assumed): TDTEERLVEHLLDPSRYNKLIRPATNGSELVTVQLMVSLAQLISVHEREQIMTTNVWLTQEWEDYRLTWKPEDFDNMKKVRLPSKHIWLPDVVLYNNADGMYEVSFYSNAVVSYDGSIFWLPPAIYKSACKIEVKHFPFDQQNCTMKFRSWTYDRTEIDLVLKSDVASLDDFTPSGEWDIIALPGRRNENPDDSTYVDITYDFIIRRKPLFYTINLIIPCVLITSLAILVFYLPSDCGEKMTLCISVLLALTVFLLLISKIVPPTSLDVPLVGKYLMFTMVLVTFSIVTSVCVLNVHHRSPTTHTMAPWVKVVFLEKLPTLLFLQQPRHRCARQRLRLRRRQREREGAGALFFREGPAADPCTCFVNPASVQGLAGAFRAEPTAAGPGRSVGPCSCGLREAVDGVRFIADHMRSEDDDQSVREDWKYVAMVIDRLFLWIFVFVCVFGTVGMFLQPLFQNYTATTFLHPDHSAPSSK

Consider `CC[C@H](C)[C@@H]1NC(=O)[C@@H]2CSSC[C@H](NC(=O)[C@@H](NC(=O)CN)CSSC[C@@H](C(=O)O)NC(=O)[C@H](CC(C)C)NC(=O)[C@H](CC(=O)O)NC(=O)[C@@H]3CCCN3C(=O)[C@H](CC(N)=O)NC(=O)[C@H](CC(N)=O)NC(=O)[C@H](C)NC1=O)C(=O)N[C@@H](CO)C(=O)N[C@@H](CCCNC(=N)N)C(=O)N1CCC[C@H]1C(=O)N1CCC[C@H]1C(=O)N2` [Recombinant TxIA], for which the “nH (Hill coefficient)” value at rat α3β2 nAChR is given as −1.54.

`CC[C@H](C)[C@@H]1NC(=O)[C@@H]2CSSC[C@H](NC(=O)[C@@H](NC(=O)CN)CSSC[C@@H](C(=O)O)NC(=O)[C@H](CC(C)C)NC(=O)[C@H](CC(=O)O)NC(=O)[C@@H]3CCCN3C(=O)[C@H](CC(N)=O)NC(=O)[C@H](CC(N)=O)NC(=O)[C@H](C)NC1=O)C(=O)N[C@@H](CO)C(=O)N[C@@H](CC(=O)O)C(=O)N1CCC[C@H]1C(=O)N1CCC[C@H]1C(=O)N2` [Recombinant [R5D]TxIA] (H-GCCSDPPCIANNPDLC-OH; disulfide 2-16, 3-8): at rat α3β2 nAChR, inhibition was half-maximal at 3.54 µM (IC50) and the “nH (Hill coefficient)” value is on record as −1.38. Also, on rat α7 nAChR, the IC50 was 2.91 µM, the “activity at α7 nAChR (in words)” value is given as “almost completely reversed; also recorded: could rescue the activity at the α7 nAChR at a similar level to that of globular TxIA” and the “nH (Hill coefficient)” value is on record as −1.24.

With `CC[C@H](C)[C@@H]1NC(=O)[C@@H]2CSSC[C@H](NC(=O)[C@@H](NC(=O)CN)CSSC[C@@H](C(=O)O)NC(=O)[C@H](CC(C)C)NC(=O)[C@H](CC(=O)O)NC(=O)[C@@H]3CCCN3C(=O)[C@H](CC(N)=O)NC(=O)[C@H](CC(N)=O)NC(=O)[C@H](C)NC1=O)C(=O)N[C@@H](CO)C(=O)N[C@@H](CC(N)=O)C(=O)N1CCC[C@H]1C(=O)N1CCC[C@H]1C(=O)N2` [Recombinant [R5N]TxIA] (H-GCCSNPPCIANNPDLC-OH; disulfide 2-16, 3-8), at rat α3β2 nAChR, half-maximal inhibition (IC50) required 1.83 µM and the “nH (Hill coefficient)” value is on record as −1.36. Besides, on rat α7 nAChR, the “activity at α7 nAChR (in words)” value is reported as “but not when an asparagine residue was introduced in this position”.

Regarding `CC[C@H](C)[C@@H]1NC(=O)[C@@H]2CSSC[C@H](NC(=O)CN)C(=O)N[C@@H](CSSC[C@@H](C(N)=O)NC(=O)[C@H](CC(C)C)NC(=O)[C@H](CC(=O)O)NC(=O)[C@@H]3CCCN3C(=O)[C@H](CC(N)=O)NC(=O)[C@H](CC(N)=O)NC(=O)[C@H](C)NC1=O)C(=O)N[C@@H](CO)C(=O)N[C@@H](CCCNC(=N)N)C(=O)N1CCC[C@H]1C(=O)N1CCC[C@H]1C(=O)N2` [Synthetic TxIA, reference compound], the IC50 stood at 0.0046 µM on rat α3β2 nAChR and 1.81 µM at rat α7 nAChR.

On to Vc1.1, for which the analgesic properties result in test [1] is listed as “potent analgesic properties”.
